Source: US10709719B2, “Substituted bicyclic compounds” (BRISTOL-MYERS SQUIBB COMPANY, priority 2014, dated 2020)
Entries after “also recorded” stand apart in the source; their conditions may differ.

Tests used:
S1P1 = S1P1 (Homo sapiens (Human), UniProt P21453); experiment: Receptor [35S]GTPγS binding assay (S1P1 GTPγS), membranes from S1P1/CHO cells; format: biochemical; conditions: result in words
Description: Compounds were loaded in a 384 Falcon v-bottom plate (0.5 μl/well in a 11 point, 3-fold dilution). Membranes prepared from S1P1/CHO cells or EDG3-Gal5-bla HEK293T cells (EDG3 equivalent S1P3) were added to the compound plate (40 μl/well, final protein 3 μg/well) with MULTIDROP®. […] 40 μl of the [^35S] GTP solution was added to the compound plate with a final concentration of 0.2 nM. The reaction was kept at room temperature for 45 min. At the end of incubation, all the mixtures in the compound plate were transferred to Millipore 384-well FB filter plates via the VELOCITY11® Vprep liquid handler. The filter plate was washed with water 4 times by using the manifold Embla plate washer and dried at 60° C. for 45 min. MicroScint 20 scintillation fluid (30 μl) was added to each well for counting on the Packard TOPCOUNT®.
A larger value for the GTPγS S1P3 EC50 value indicated less activity in the GTPγS S1P3 binding assay.

S1P3 (EDG3) = S1P3 (EDG3) (Homo sapiens (Human), UniProt Q99500); experiment: Receptor [35S]GTPγS binding assay (S1P3 GTPγS), membranes from EDG3-Gal5-bla HEK293T cells; format: biochemical; conditions: GTPγS S1P1 versus S1P3, result in words
Description: Compounds were loaded in a 384 Falcon v-bottom plate (0.5 μl/well in a 11 point, 3-fold dilution). Membranes prepared from S1P1/CHO cells or EDG3-Gal5-bla HEK293T cells (EDG3 equivalent S1P3) were added to the compound plate (40 μl/well, final protein 3 μg/well) with MULTIDROP®. [^35S]GTP (1250 Ci/mmol, Perkin Elmer) was diluted in assay buffer: 20 mM HEPES, pH7.5, 10 mM MgCl2, 150 mM NaCl, 1 mM EGTA(ethylene glycol tetraacetic acid), 1 mM DTT (Dithiothreitol), 10 μM GDP, 0.1% fatty acid free BSA, and 10 μg/ml Saponin to 0.4 nM. 40 μl of the [^35S] GTP solution was added to the compound plate with a final concentration of 0.2 nM. The reaction was kept at room temperature for 45 min. At the end of incubation, all the mixtures in the compound plate were transferred to Millipore 384-well FB filter plates via the VELOCITY11® Vprep liquid handler. The filter plate was washed with water 4 times by using the manifold Embla plate washer and dried at 60° C. for 45 min. MicroScint 20 scintillation fluid (30 μl) was added to each well for counting on the Packard TOPCOUNT®.
A smaller value for GTPγS S1P EC50 value indicated greater activity for the compound in the GTPγS S1P binding assay. A larger value for the GTPγS S1P3 EC50 value indicated less activity in the GTPγS S1P3 binding assay. […]

[1] = test system: adjuvant-induced arthritis, hind paw volume; experiment: Rat adjuvant induced arthritis assay (AA); format: in vivo, Lewis rats; conditions: Lewis rat, prophylactic oral dosing regimen
Description: The rat adjuvant-induced arthritis model is an animal model for human rheumatoid arthritis. Male Lewis rats (150-175 g; Harlan, n=8 treatment group) were immunized at the base of the tail with 100 μl of 10 mg/ml freshly ground Mycobacterium butyricum (Difco Laboratories) in incomplete Freund's adjuvant (sigma). Animals were dosed once daily with the test article (as a solution or suspension in the vehicle) or vehicle alone (polyethylene glycol 300, “PEG300”) starting from the day of immunization. The volumes of their hind paws were measured in a water displacement plethysmometer (Ugo Basile, Italy). The baseline paw measurements were taken before onset of the disease (between day 7 to day 10). The paw measurements were then taken three times a week until the end of the study on day 20 to 21. All procedures involving animals were reviewed and approved by the Institutional Animal Care Use Committee.

[2] = test system: experimental autoimmune encephalomyelitis, clinical score; experiment: Mouse experimental autoimmune encephalomyelitis assay (EAE); format: in vivo; conditions: C57Bl/6 mice, prophylactic oral dosing regimen
[3] = test system: experimental autoimmune encephalomyelitis, clinical score; experiment: Rat experimental autoimmune encephalomyelitis (EAE); format: in vivo, Lewis rats; conditions: Lewis rat, prophylactic oral dosing regimen
Description: Female Lewis rats (150-200 g; Harlan) were immunized at the base of the tail with 0.1 ml of a complete Freund's adjuvant emulsion containing 0.5 mg/mL guinea pig myelin basic protein (Genemed Synthesis) and 2 mg/mL Mycobacterium butyricum (Difco). Beginning on Day 7, rats (n=11/group) were scored individually at least 3×/wk according to the following scheme: [table] Average clinical scores were calculated for each treatment group on each day of assessment.

anti-dsDNA antibodies = experiment: MRL/lpr lupus model: anti-dsDNA antibody titers (ELISA); format: in vivo; conditions: MRL/lpr mice, p.o. daily
Description: (§1) MRL/lpr is a spontaneous model of lupus. Male MRL/lpr mice (Jackson Laboratory) at the age of 12-14 weeks were enrolled for the study (N=12). Mice were dosed p.o. daily with vehicle (18.4% (w/v) hydroxypropyl-b-cyclodextrin in 13.8 mM citric acid) or with Example 681 at 0.06, 0.3, 1.5 mg/kg. Mice were bled every other week for anti-dsDNA antibodies measured by ELISA using pooled serum from diseased MRL/lpr mice as a positive comparator in each assay. The data were expressed in arbitrary units as a ratio of the titer of the test serum to the titer of the pooled MRL/lpr immune serum.

kidney histology score = experiment: MRL/lpr lupus model: kidney histological analysis; format: in vivo; conditions: MRL/lpr mice, p.o. daily
Description: as §1
At the end of study, one kidney was collected into 10% neutral buffered formalin and ZincTris fixatives. Fixed tissues were processed into paraffin blocks, sectioned at […], and stained with H&E or PASH. Kidney sections were graded using following criteria: Glomerular Damage: 1. Mesangial matrix thickening, cell proliferation, 2. Crescent formation, cellular deposits/casts in Bowman's space, 3. Cellular infiltration, mononuclear cells in glomerular tufts, 4. Fibrosis of Bowman's capsule. Tubular damage: 1. Infiltration of mononuclear cells, 2. Severity of tubular damage, 3. Protein casts. Tubulo-interstitial damage: 1. Fibrosis, 2. Infiltration of mononuclear cells. Each subcategory was assigned a score from 0-4, with the scores for glomerular indices representing the mean from 20 glomeruli per kidney. […]

Chain of S1P1 (P21453 whole entry): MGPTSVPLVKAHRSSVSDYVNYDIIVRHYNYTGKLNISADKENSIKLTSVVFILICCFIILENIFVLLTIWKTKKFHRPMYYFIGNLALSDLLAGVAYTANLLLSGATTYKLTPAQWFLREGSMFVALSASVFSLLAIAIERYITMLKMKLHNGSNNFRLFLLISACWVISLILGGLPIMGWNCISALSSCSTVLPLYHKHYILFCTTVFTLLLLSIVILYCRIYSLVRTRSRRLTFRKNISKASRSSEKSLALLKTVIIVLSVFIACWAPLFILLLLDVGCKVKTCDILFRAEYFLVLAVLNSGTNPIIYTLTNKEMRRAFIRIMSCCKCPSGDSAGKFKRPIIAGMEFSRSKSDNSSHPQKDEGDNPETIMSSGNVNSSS
Chain of S1P3 (EDG3) (Q99500 whole entry): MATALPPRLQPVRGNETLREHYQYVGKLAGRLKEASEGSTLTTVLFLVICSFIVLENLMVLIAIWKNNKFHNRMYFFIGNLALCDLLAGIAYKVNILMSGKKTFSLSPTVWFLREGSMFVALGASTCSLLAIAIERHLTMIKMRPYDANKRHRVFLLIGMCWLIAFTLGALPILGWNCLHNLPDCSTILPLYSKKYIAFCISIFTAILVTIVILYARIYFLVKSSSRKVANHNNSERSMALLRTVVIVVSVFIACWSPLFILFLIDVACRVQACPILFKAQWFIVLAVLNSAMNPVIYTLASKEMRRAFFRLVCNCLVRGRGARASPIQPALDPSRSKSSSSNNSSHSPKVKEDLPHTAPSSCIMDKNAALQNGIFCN

SMILES: COCCCCCC1CCc2cc([C@H]3CC[C@](N)(COP(=O)(O)O)C3)ccc2C1 (single isomer, unassigned) [Example 689]
- activity as an agonist of S1P1 (S1P1): possessed activity as an agonist of S1P
- selectivity over S1P3 (S1P3 (EDG3)): selective over S1P3

SMILES: COCCCCC[C@H]1CCc2cc([C@H]3CC[C@](N)(CO)C3)ccc2C1 [Example 672, ((1R,3S)-1-amino-3-((S)-6-(5-methoxypentyl)-5,6,7,8-tetrahydronaphthalen-2-yl)cyclopentyl)methanol]
- inhibition of disease progression as measured by reduced paw swelling [1]: showed inhibition of disease progression

SMILES: CCOCCC[C@@H]1CCc2cc([C@H]3CC[C@](N)(CO)C3)ccc2C1 [Example 679, ((1R,3S)-1-amino-3-((S)-6-(3-ethoxypropyl)-5,6,7,8-tetrahydronaphthalen-2-yl)cyclopentyl)methanol]
- inhibition of disease progression as measured by reduced paw swelling [1]: showed inhibition of disease progression
- inhibition of disease progression as measured by clinical scores [2]: showed inhibition of disease progression; also recorded: inhibit disease progression
- inhibition of disease progression as measured by reduced clinical scores [3]: showed inhibition of disease progression

SMILES: COc1ccccc1CCC1CCc2cc([C@H]3CC[C@](N)(COP(=O)(O)O)C3)ccc2C1 (single isomer, unassigned) [Example 697]
- activity as an agonist of S1P1 (S1P1): possessed activity as an agonist of S1P1

SMILES: COc1ccccc1CC[C@@H]1CCc2cc([C@H]3CC[C@](N)(CO)C3)ccc2C1 [Example 681, ((1R,3S)-1-amino-3-((S)-6-(2-methoxyphenethyl)-5,6,7,8-tetrahydronaphthalen-2-yl)cyclopentyl)methanol]
- inhibition of disease progression as measured by clinical scores [2]: showed inhibition of disease progression; also recorded: inhibit disease progression
- inhibition of disease progression as measured by anti-dsDNA titers (anti-dsDNA antibodies): showed inhibition of disease progression
- inhibition of disease progression as measured by kidney histology (kidney histology score): showed inhibition of disease progression
